How the values were obtained:
[1] = system: rape; assay: Test B pre/postemergence rape; type: in vivo, Brassica napus
Outline: (§1)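 Response is a visual 0-to-10 score relative to untreated plants, where 0 means no effect and 10 means complete control, taken twelve to sixteen days after application. Treatments went onto soil at planting and onto foliage of 1- to 4-leaf plants, using a surfactant-containing non-phytotoxic solvent.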

[2] = system: pigweed; assay: Test B pre/postemergence pigweed; type: in vivo, Amaranthus retroflexus
Outline: as §1

[3] = system: velvetleaf; assay: Test B pre/postemergence velvetleaf; type: in vivo, Abutilon theophrasti
Outline: as §1

[4] = system: sugar beet; assay: Test B pre/postemergence sugar beet; type: in vivo, Beta vulgaris
Outline: as §1

[5] = system: giant foxtail; assay: Test B pre/postemergence giant foxtail; type: in vivo, Setaria faberii
Outline: as §1

[6] = system: corn; assay: Test B pre/postemergence corn; type: in vivo, Zea mays
Outline: as §1

[7] = system: surinam grass; assay: Test B pre/postemergence surinam grass; type: in vivo, Brachiaria decumbens
Outline: as §1

[8] = system: cocklebur; assay: Test B pre/postemergence cocklebur; type: in vivo, Xanthium strumarium
Outline: as §1

[9] = system: rice; assay: Test B flood test rice; type: in vivo, Oryza sativa
Outline: (§2)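 Read-out is a visual response score from 0 (no effect) to 10 (complete control), assigned by comparison with untreated controls. Treatment was applied at the 2-leaf stage, and plants stayed in the greenhouse for twelve to sixteen days before scoring.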

[10] = system: smallflower flatsedge; assay: Test B flood test smallflower flatsedge; type: in vivo, Cyperus difformis
Outline: as §2

[11] = system: wild oat; assay: Test B pre/postemergence wild oat; type: in vivo, Avena fatua
Outline: as §1

[12] = system: morningglory; assay: Test B pre/postemergence morningglory; type: in vivo, Ipomoea hederacea
Outline: as §1

[13] = system: wheat; assay: Test B pre/postemergence wheat; type: in vivo, Triticum aestivum
Outline: as §1

[14] = system: bedstraw; assay: Test B pre/postemergence bedstraw; type: in vivo, Galium aparine
Outline: as §1

[15] = system: blackgrass; assay: Test B pre/postemergence blackgrass; type: in vivo, Alopecurus myosuroides
Outline: as §1

[16] = system: soybean; assay: Test B pre/postemergence soybean; type: in vivo, Glycine max
Outline: as §1

[17] = Postemergence, Rate 125 g/ha, scale of 0 to 10 where 0 is no effect and 10 is complete control
[18] = Preemergence, Rate 62 g/ha, scale 0 to 10 (0 no effect, 10 complete control)
[19] = Preemergence, Rate 125 g/ha, 0 is no effect, 10 is complete control
[20] = Preemergence, Rate 250 g/ha, scale 0 to 10, 0 is no effect, 10 is complete control
[21] = Preemergence, Rate 500 g/ha, scale 0 to 10 (0 no effect, 10 complete control)
[22] = Rate 62 g/ha, Postemergence, scale of 0 to 10 where 0 is no effect and 10 is complete control
[23] = Rate 250 g/ha, Postemergence, scale 0 to 10, 0 is no effect, 10 is complete control
[24] = Rate 500 g/ha, Postemergence, scale 0 to 10
[25] = Postemergence (flood test species), Rate 125 g/ha, scale of 0 to 10 where 0 is no effect and 10 is complete control
[26] = Rate 62 g/ha, Postemergence section, flood test species, scale of 0 to 10 where 0 is no effect and 10 is complete control
[27] = Rate 250 g/ha, Postemergence (flood test), scale 0 to 10, 0 is no effect, 10 is complete control
[28] = Rate 250 g/ha, headed Pre-emergence (flood test species), scale 0 to 10 (0 no effect, 10 complete control)
[29] = Rate 500 g/ha, headed Pre-emergence (flood test species), scale 0 to 10 (0 no effect, 10 complete control)
[30] = Rate 500 g/ha, listed under Postemergence (flood test species), scale 0 to 10
[31] = Rate 2000 g/ha, Pre-emergence (as headed), scale 0 to 10

## Cc1cnn(C)c1-n1c(=O)on(C(=O)N(c2ccc(F)cc2)C(C)C)c1=O [Compound 125]
[1]; [17]
  Rape plant response rating: 0
[1]; [18]
  Rape plant response rating: 0
[1]; [19]
  Rape plant response rating (0 to 10 scale): 0
[1]; [20]
  Rape plant response rating: 0
[1]; [21]
  Rape plant response rating: 0
[1]; [22]
  Rape plant response rating: 0
[1]; [23]
  Plant response rating, Rape: 0
[1]; [24]
  Rape plant response rating: 0
[2]; [17]
  Redroot pigweed plant response rating: 0
[2]; [18]
  Redroot pigweed plant response rating: 0
[2]; [19]
  Redroot pigweed plant response rating (0 to 10 scale): 0
[2]; [20]
  Redroot pigweed plant response rating: 0
[2]; [21]
  Redroot pigweed plant response rating: 0
[2]; [22]
  Redroot pigweed plant response rating: 0
[2]; [23]
  Plant response rating, Redroot pigweed: 0
[2]; [24]
  Redroot pigweed plant response rating: 0
[3]; [17]
  Velvetleaf plant response rating: 0
[3]; [18]
  Velvetleaf plant response rating: 0
[3]; [19]
  Velvetleaf plant response rating (0 to 10 scale): 0
[3]; [20]
  Velvetleaf plant response rating: 0
[3]; [21]
  Velvetleaf plant response rating: 0
[3]; [22]
  Velvetleaf plant response rating: 0
[3]; [23]
  Plant response rating, Velvetleaf: 0
[3]; [24]
  Velvetleaf plant response rating: 0
[4]; [17]
  Sugarbeets plant response rating: 0
[4]; [18]
  Sugarbeets plant response rating: 0
[4]; [19]
  Sugarbeets plant response rating (0 to 10 scale): 0
[4]; [20]
  Sugarbeets plant response rating: 0
[4]; [21]
  Sugarbeets plant response rating: 0
[4]; [22]
  Sugarbeets plant response rating: 0
[4]; [23]
  Plant response rating, Sugarbeets: 0
[4]; [24]
  Sugarbeets plant response rating: 0
[5]; [17]
  Giant foxtail plant response rating: 0
[5]; [18]
  Giant foxtail plant response rating: 0
[5]; [19]
  Giant foxtail plant response rating (0 to 10 scale): 0
[5]; [21]
  Giant foxtail plant response rating: 0
[5]; [22]
  Giant foxtail plant response rating: 0
[5]; [23]
  Plant response rating, Giant foxtail: 0
[5]; [24]
  Giant foxtail plant response rating: 0
[6]; [17]
  Corn plant response rating: 0
[6]; [18]
  Corn plant response rating: 0
[6]; [19]
  Corn plant response rating (0 to 10 scale): 0
[6]; [20]
  Corn plant response rating: 0
[6]; [21]
  Corn plant response rating: 0
[6]; [22]
  Corn plant response rating: 0
[6]; [23]
  Plant response rating, Corn: 0
[6]; [24]
  Corn plant response rating: 0
[7]; Postemergence, Rate 62 g/ha, scale 0 to 10, 0 is no effect, 10 is complete control
  B. signalgrass plant response rating: 0
[7]; [17]
  B. signalgrass plant response rating: 0
[7]; [18]
  B. signalgrass plant response rating: 0
[7]; [19]
  B. signalgrass plant response rating (0 to 10 scale): 0
[7]; [20]
  B. signalgrass plant response rating: 0
[7]; [21]
  B. signalgrass plant response rating: 0
[7]; [23]
  Plant response rating, B. signalgrass: 0
[7]; Rate 500 g/ha, Postemergence, scale of 0 to 10 where 0 is no effect and 10 is complete control
  B. signalgrass plant response rating: 0
[8]; [17]
  Cocklebur plant response rating: 0
[8]; [18]
  Cocklebur plant response rating: 0
[8]; [19]
  Cocklebur plant response rating (0 to 10 scale): 0
[8]; [20]
  Cocklebur plant response rating: 0
[8]; [21]
  Cocklebur plant response rating: 0
[8]; [22]
  Cocklebur plant response rating: 0
[8]; [23]
  Plant response rating, Cocklebur: 0
[8]; [24]
  Cocklebur plant response rating: 0
[9]; [25]
  Rice plant response rating: 0
[9]; [26]
  Rice plant response rating: 0
[9]; [27]
  Plant response rating, Rice: 0
[9]; [28]
  Rice plant response rating: 0
[9]; [29]
  Plant response rating, Rice: 0
[9]; [30]
  Rice plant response rating: 0
[9]; Rate 1000 g/ha, Pre-emergence (as headed), scale 0 to 10
  Rice plant response rating: 0
[9]; [31]
  Rice plant response rating: 0
[10]; [25]
  S. Flatsedge plant response rating: 0
[10]; Pre-emergence, Rate 1000 g/ha, scale 0 to 10 (0 no effect, 10 complete control)
  S. Flatsedge plant response rating: 0
[10]; [26]
  S. Flatsedge plant response rating: 0
[10]; [27]
  Plant response rating, S. Flatsedge: 0
[10]; [28]
  S. Flatsedge plant response rating: 0
[10]; [29]
  Plant response rating, S. Flatsedge: 0
[10]; [30]
  S. Flatsedge plant response rating: 0
[10]; [31]
  S. Flatsedge plant response rating: 0
[11]; [17]
  Wild oats plant response rating: 0
[11]; [18]
  Wild oats plant response rating: 0
[11]; [19]
  Wild oats plant response rating (0 to 10 scale): 0
[11]; [20]
  Wild oats plant response rating: 0
[11]; [21]
  Wild oats plant response rating: 0
[11]; [22]
  Wild oats plant response rating: 0
[11]; [23]
  Plant response rating, Wild oats: 0
[11]; [24]
  Wild oats plant response rating: 0
[12]; [17]
  Morningglory plant response rating: 0
[12]; [18]
  Morningglory plant response rating: 0
[12]; [19]
  Morningglory plant response rating (0 to 10 scale): 0
[12]; [20]
  Morningglory plant response rating: 0
[12]; [21]
  Morningglory plant response rating: 0
[12]; [22]
  Morningglory plant response rating: 0
[12]; [23]
  Plant response rating, Morningglory: 2
[12]; [24]
  Morningglory plant response rating: 2
[13]; [17]
  Wheat plant response rating: 0
[13]; [18]
  Wheat plant response rating: 0
[13]; [19]
  Wheat plant response rating (0 to 10 scale): 0
[13]; [20]
  Wheat plant response rating: 0
[13]; [21]
  Wheat plant response rating: 0
[13]; [22]
  Wheat plant response rating: 0
[13]; [23]
  Plant response rating, Wheat: 0
[13]; [24]
  Wheat plant response rating: 0
[14]; [18]
  Bedstraw plant response rating: 0
[14]; [19]
  Bedstraw plant response rating (0 to 10 scale): 0
[14]; [20]
  Bedstraw plant response rating: 0
[14]; [21]
  Bedstraw plant response rating: 0
[14]; Rate 500 g/ha, Postemergence, scale 0 to 10, 0 no effect, 10 complete control
  Bedstraw plant response rating: 0
[15]; [17]
  Blackgrass plant response rating: 0
[15]; [18]
  Blackgrass plant response rating: 0
[15]; [19]
  Blackgrass plant response rating (0 to 10 scale): 0
[15]; [21]
  Blackgrass plant response rating: 0
[15]; [22]
  Blackgrass plant response rating: 0
[15]; [23]
  Plant response rating, Blackgrass: 0
[15]; [24]
  Blackgrass plant response rating: 0
[16]; [17]
  Soybean plant response rating: 4
[16]; [18]
  Soybean plant response rating: 0
[16]; [19]
  Soybean plant response rating (0 to 10 scale): 0
[16]; [20]
  Soybean plant response rating: 0
[16]; [21]
  Soybean plant response rating: 0
[16]; [22]
  Soybean plant response rating: 0
[16]; [23]
  Plant response rating, Soybean: 4
[16]; [24]
  Soybean plant response rating: 4

Source: US6737383B1, “Herbicidal oxadiazolidines” (priority 1999, dated 2004)
